Common to all, as to format: biochemical
The target of experiment [1] is recombinant human PI3Kγ ((aa144-1102)-6His) (Homo sapiens (Human), UniProt P48736). Nature of the experiment: Enzymatic activity assay for recombinant human PI3Kγ (ADP-Glo). To be noted: 1.2 nM PI3Kγ, 20 μM ATP, 80 μM DiC8-PIP2, ADP-Glo. As to the method: (§1) Enzymatic Activity Assay for Recombinant Human PI3K α, β, δ and γ.
(§2) The activity of recombinant human PI3Kγ ((aa144-1102)-6His) and PI3Kα, β, δ (6-His(p110-p85α)) was determined by measuring the ADP level after phosphorylation of DiC8-PIP2 using a commercially available ADP-Glo™ kit from Promega. The assay was carried out in white low volume 384 well plates in a final volume of 14 μl at R.T. The assay conditions contained the following: 50 mM Tris buffer pH 7.4, 2.1 mM DTT, 3 mM MgCl2, 0.05% CHAPS, 20 μM ATP, 80 μM DiC8-PIP2 and 1.2 nM PI3Kα, β, γ or 0.6 nM PI3Kδ. […] Routinely, inhibitors were pre-incubated with 3 μl of enzyme for 15 min prior to the addition of 2 μl substrate mixture for a further 60 min enzyme reaction. The phosphorylation was stopped with the addition of 3 μl ADP-Glo™ reagent (stop solution) followed by a 40 min incubation. Prior to detection 6 μl of ADP-Glo™ Kinase Detection Reagent was added and the plates were read in a micro plate reader using a Luminescence filter. All additions were followed by a short centrifugation step.

The target in experiment [2] is recombinant human PI3Kδ (6-His(p110-p85α)) (Homo sapiens (Human), UniProt O00329). Nature of the experiment: Enzymatic activity assay for recombinant human PI3Kδ (ADP-Glo). Conditions: 0.6 nM PI3Kδ, 20 μM ATP, 80 μM DiC8-PIP2, ADP-Glo. Here is the method:
as §1, §2

The target of experiment [3] is recombinant human PI3Kα (6-His(p110-p85α)) (Homo sapiens (Human), UniProt P42336). Nature of the experiment: Enzymatic activity assay for recombinant human PI3Kα (ADP-Glo). To be noted: 1.2 nM PI3Kα, 20 μM ATP, 80 μM DiC8-PIP2, ADP-Glo. Here is the method: as §1
recombinant human PI3Kα (6-His(p110-p85α)), sequence (P42336 whole entry): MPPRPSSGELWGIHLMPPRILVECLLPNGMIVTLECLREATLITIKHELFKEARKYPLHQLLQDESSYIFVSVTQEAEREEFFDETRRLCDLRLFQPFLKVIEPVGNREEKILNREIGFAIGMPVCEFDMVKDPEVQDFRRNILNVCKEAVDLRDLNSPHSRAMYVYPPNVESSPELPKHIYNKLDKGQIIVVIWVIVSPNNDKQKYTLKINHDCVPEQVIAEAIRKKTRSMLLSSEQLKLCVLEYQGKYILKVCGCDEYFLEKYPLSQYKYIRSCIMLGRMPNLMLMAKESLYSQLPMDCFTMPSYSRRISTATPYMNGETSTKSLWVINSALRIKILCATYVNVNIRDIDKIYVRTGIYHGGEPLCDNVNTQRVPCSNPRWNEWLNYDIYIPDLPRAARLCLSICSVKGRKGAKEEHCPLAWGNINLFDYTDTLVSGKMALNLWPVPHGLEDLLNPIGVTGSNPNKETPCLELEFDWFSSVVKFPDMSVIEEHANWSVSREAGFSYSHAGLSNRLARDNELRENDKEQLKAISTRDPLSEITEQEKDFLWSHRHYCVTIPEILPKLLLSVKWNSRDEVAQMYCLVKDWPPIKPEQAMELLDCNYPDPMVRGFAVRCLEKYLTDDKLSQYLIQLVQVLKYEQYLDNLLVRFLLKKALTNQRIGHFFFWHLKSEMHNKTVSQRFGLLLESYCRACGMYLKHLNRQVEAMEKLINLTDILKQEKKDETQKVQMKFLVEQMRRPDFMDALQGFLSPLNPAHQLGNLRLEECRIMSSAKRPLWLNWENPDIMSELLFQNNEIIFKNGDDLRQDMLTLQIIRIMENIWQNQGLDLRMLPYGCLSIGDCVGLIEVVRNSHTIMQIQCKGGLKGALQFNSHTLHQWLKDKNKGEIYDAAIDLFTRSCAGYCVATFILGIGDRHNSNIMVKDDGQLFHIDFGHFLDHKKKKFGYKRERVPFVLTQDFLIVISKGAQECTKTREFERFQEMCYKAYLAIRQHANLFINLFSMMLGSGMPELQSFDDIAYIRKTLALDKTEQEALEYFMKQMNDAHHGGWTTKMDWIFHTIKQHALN
recombinant human PI3Kα (6-His(p110-p85α)), sequence (P27986 whole entry partner): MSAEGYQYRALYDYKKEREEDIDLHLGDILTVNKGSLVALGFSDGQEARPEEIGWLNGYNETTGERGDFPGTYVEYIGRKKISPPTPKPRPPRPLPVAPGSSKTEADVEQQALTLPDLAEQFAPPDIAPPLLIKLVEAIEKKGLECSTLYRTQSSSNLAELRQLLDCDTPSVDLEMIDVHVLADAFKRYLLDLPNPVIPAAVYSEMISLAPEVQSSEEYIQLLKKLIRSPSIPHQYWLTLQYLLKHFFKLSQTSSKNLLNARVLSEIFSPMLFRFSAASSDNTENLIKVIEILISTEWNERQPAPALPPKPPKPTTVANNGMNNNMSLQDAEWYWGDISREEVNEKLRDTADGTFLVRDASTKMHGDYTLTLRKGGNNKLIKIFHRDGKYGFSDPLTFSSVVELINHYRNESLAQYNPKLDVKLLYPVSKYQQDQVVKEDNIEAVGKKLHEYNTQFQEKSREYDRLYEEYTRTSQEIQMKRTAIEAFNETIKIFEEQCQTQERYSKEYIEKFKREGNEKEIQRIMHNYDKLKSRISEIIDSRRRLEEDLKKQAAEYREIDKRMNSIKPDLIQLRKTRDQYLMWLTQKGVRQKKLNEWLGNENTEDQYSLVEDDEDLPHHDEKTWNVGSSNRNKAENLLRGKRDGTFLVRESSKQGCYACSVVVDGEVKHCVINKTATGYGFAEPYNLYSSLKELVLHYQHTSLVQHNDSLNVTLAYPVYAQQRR
as §2, with “PI3Kδ. Potential inhibitors were made up in DMSO and then diluted in the assay to give a final concentration of not exceeding 1% (v/v) DMSO.” for “PI3Kδ.”

Experiment [4] deals with recombinant human PI3Kβ (6-His(p110-p85α)) (Homo sapiens (Human), UniProt P42338). Nature of the experiment: Enzymatic activity assay for recombinant human PI3Kβ (ADP-Glo). To be noted: 1.2 nM PI3Kβ, 20 μM ATP, 80 μM DiC8-PIP2, ADP-Glo. Here is the method:
as §1
as §2, with “PI3Kδ. Potential inhibitors were made up in DMSO and then diluted in the assay to give a final concentration of not exceeding 1% (v/v) DMSO.” for “PI3Kδ.”

recombinant human PI3Kγ ((aa144-1102)-6His), sequence (P48736 144-1102): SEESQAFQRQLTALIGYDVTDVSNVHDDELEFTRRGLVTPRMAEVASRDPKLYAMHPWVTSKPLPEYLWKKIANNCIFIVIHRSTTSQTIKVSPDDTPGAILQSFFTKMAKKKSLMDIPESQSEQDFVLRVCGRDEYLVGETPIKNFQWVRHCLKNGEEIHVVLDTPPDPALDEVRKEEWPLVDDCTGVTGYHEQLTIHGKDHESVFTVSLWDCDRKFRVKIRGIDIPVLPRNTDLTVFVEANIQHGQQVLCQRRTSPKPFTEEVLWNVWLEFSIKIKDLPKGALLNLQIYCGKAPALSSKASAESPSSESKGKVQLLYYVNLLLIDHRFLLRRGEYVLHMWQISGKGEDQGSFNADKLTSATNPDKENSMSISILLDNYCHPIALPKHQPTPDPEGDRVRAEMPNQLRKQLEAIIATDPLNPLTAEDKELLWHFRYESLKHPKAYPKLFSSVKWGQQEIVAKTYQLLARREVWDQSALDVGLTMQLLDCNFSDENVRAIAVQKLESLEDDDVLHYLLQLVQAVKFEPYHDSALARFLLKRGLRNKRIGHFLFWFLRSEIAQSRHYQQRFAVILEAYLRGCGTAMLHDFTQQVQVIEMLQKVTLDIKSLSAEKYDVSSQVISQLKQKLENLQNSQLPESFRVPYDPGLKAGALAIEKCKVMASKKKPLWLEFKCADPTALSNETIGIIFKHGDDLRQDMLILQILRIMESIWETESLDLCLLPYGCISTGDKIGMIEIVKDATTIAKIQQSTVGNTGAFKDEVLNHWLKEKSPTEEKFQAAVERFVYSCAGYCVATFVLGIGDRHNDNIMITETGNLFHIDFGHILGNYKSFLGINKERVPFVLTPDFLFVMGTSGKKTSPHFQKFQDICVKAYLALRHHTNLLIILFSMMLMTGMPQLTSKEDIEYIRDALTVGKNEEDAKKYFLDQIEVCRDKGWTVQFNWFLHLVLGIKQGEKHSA
recombinant human PI3Kδ (6-His(p110-p85α)), sequence (O00329 whole entry): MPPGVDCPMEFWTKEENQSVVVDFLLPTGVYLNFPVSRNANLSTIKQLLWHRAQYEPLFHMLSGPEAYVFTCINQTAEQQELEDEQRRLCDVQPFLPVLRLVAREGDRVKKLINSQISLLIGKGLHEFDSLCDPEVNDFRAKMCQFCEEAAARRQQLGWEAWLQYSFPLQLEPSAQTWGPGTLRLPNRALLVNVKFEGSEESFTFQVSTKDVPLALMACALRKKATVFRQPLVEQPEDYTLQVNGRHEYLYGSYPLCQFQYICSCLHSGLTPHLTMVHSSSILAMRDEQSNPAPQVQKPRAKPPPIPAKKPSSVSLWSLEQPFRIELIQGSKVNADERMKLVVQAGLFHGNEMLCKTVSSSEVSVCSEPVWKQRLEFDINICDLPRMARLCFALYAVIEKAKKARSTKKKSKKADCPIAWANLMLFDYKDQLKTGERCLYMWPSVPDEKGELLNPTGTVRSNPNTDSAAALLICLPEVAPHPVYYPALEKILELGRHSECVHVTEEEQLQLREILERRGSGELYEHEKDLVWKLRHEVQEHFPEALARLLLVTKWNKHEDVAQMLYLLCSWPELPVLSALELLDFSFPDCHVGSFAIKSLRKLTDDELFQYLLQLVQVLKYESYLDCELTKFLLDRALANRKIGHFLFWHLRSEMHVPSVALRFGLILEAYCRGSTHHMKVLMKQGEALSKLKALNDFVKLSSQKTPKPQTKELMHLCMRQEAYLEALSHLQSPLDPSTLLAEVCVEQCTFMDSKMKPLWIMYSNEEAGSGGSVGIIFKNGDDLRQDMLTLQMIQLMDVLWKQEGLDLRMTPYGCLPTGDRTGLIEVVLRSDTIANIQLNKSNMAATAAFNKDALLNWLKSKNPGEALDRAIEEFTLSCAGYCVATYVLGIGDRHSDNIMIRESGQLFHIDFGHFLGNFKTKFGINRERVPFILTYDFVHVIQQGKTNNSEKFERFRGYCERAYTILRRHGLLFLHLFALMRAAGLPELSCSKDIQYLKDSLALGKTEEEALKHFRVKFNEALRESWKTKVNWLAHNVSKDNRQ
recombinant human PI3Kδ (6-His(p110-p85α)), sequence (P27986 whole entry partner): as the sequence (P27986 whole entry partner) above
recombinant human PI3Kβ (6-His(p110-p85α)), sequence (P42338 whole entry): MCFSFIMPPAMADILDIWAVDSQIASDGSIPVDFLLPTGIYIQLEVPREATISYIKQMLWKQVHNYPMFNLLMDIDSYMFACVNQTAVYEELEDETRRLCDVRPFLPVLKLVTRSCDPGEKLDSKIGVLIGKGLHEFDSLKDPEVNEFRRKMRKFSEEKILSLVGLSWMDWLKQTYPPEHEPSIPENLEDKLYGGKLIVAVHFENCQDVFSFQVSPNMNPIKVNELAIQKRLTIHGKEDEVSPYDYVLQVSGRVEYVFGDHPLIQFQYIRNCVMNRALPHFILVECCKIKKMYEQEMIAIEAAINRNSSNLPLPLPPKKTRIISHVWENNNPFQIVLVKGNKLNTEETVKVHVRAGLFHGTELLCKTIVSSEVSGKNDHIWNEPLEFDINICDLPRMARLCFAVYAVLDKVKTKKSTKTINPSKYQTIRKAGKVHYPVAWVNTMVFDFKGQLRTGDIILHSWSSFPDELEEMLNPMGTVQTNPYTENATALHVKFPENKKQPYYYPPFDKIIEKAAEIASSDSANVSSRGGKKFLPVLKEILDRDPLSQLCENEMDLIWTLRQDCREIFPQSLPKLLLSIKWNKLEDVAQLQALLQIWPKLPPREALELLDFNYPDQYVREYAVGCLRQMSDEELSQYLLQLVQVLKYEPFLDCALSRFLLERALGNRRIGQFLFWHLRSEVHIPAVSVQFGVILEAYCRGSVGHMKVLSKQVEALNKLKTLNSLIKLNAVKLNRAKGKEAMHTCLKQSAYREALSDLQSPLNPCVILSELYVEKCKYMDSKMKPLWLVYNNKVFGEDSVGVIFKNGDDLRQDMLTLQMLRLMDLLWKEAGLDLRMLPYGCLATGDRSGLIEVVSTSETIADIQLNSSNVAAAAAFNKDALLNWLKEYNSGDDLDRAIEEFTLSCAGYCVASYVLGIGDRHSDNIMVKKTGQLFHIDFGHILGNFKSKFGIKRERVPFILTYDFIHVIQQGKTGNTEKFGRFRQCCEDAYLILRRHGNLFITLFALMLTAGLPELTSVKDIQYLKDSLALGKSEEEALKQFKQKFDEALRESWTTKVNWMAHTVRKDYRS
recombinant human PI3Kβ (6-His(p110-p85α)), sequence (P27986 whole entry partner): as the sequence (P27986 whole entry partner) above

As to `Cc1nc(Nc2cccc(N3CCCC3=O)n2)sc1-c1cc2c(c(S(C)(=O)=O)c1)C(=O)N([C@@H](C)C1CC1)C2` [Example 1, 2-[(1S)-1-Cyclopropylethyl]-5-(4-methyl-2-{[6-(2-oxopyrrolidin-1-yl)pyridin-2-yl]amino}-1,3-thiazol-5-yl)-7-(methylsulfonyl)-2,3-dihydro-1H-isoindol-1-one], the IC50 in experiment [1] amounted to 0.9 nM; in experiment [2] it was 0.7 nM; in experiment [3] it was 55 nM; in experiment [4], 1360 nM.
Taken in the same sequence, the figures for `CC(=O)Nc1cccc(Nc2nc(C)c(-c3cc4c(c(S(C)(=O)=O)c3)C(=O)N([C@@H](C)C3CC3)C4)s2)n1` [Example 2, N-{6-[(5-{2-[(1S)-1-Cyclopropylethyl]-7-(methylsulfonyl)-1-oxo-2,3-dihydro-1H-isoindol-5-yl}-4-methyl-1,3-thiazol-2-yl)amino]pyridin-2-yl}acetamide] were 0.9 nM, 19.6 nM, 263 nM and 3730 nM.
Taken in the same sequence, the figures for `CC(=O)N(C)c1cccc(Nc2nc(C)c(-c3cc4c(c(S(C)(=O)=O)c3)C(=O)N([C@@H](C)C3CC3)C4)s2)n1` [Example 3, N-{6-[(5-{2-[(1S)-1-Cyclopropylethyl]-7-(methylsulfonyl)-1-oxo-2,3-dihydro-1H-isoindol-5-yl}-4-methyl-1,3-thiazol-2-yl)amino]pyridin-2-yl}-N-methylacetamide] were 0.8 nM, 1.4 nM, 127 nM and 1180 nM.
As to `Cc1nc(Nc2cccc(N3CCCCC3=O)n2)sc1-c1cc2c(c(S(C)(=O)=O)c1)C(=O)N([C@@H](C)C1CC1)C2` [Example 4, 2-[(1S)-1-Cyclopropylethyl]-5-(4-methyl-2-{[6-(2-oxopiperidin-1-yl)pyridin-2-yl]amino}-1,3-thiazol-5-yl)-7-(methylsulfonyl)-2,3-dihydro-1H-isoindol-1-one], the results for the IC50 in experiment [1], in experiment [3] and in experiment [4] were 1 nM, 16 nM and 250 nM, respectively.
Take `Cc1nc(Nc2cccc(N3CCN(C)C3=O)n2)sc1-c1cc2c(c(S(C)(=O)=O)c1)C(=O)N([C@@H](C)C1CC1)C2` [Example 5, 2-[(1S)-1-Cyclopropylethyl]-5-(4-methyl-2-{[6-(3-methyl-2-oxoimidazolidin-1-yl)pyridin-2-yl]amino}-1,3-thiazol-5-yl)-7-(methylsulfonyl)-2,3-dihydro-1H-isoindol-1-one]: the IC50 in experiment [1] turned out to be 1.2 nM; in experiment [2], 0.7 nM; in experiment [3] it was 38 nM; in experiment [4], 4710 nM.
For `Cc1nc(Nc2cccc(N3CCNC3=O)n2)sc1-c1cc2c(c(S(C)(=O)=O)c1)C(=O)N([C@@H](C)C1CC1)C2` [Example 6, 2-[(1S)-1-Cyclopropylethyl]-5-(4-methyl-2-{[6-(2-oxoimidazolidin-1-yl)pyridin-2-yl]amino}-1,3-thiazol-5-yl)-7-(methylsulfonyl)-2,3-dihydro-1H-isoindol-1-one] the same measures were 0.8 nM, 0.7 nM, 23 nM and 219 nM.
As for `Cc1nc(Nc2cccc(N3CCOCC3=O)n2)sc1-c1cc2c(c(S(C)(=O)=O)c1)C(=O)N([C@@H](C)C1CC1)C2` [Example 7, 2-[(1S)-1-Cyclopropylethyl]-5-(4-methyl-2-{[6-(3-oxomorpholin-4-yl)pyridin-2-yl]amino}-1,3-thiazol-5-yl)-7-(methylsulfonyl)-2,3-dihydro-1H-isoindol-1-one], the IC50 in experiment [1] came to 0.9 nM; in experiment [3], 57 nM; in experiment [4], 688 nM.
Regarding `Cc1nc(Nc2cccc(N3CCCOC3=O)n2)sc1-c1cc2c(c(S(C)(=O)=O)c1)C(=O)N([C@@H](C)C1CC1)C2` [Example 8, 2-[(1S)-1-Cyclopropylethyl]-5-(4-methyl-2-{[6-(2-oxo-1,3-oxazinan-3-yl)pyridin-2-yl]amino}-1,3-thiazol-5-yl)-7-(methylsulfonyl)-2,3-dihydro-1H-isoindol-1-one], the IC50 in experiment [1] was 1.3 nM; in experiment [2] it was 1.2 nM; in experiment [3], 23 nM; in experiment [4], 324 nM.
Taken in the same sequence, the figures for `Cc1nc(Nc2cccc(N3Cc4ncccc4C3=O)n2)sc1-c1cc2c(c(S(C)(=O)=O)c1)C(=O)N([C@@H](C)C1CC1)C2` [Example 9, 6-{6-[(5-{2-[(1S)-1-Cyclopropylethyl]-7-(methylsulfonyl)-1-oxo-2,3-dihydro-1H-isoindol-5-yl}-4-methyl-1,3-thiazol-2-yl)amino]pyridin-2-yl}-6,7-dihydro-5H-pyrrolo[3,4-b]pyridin-5-one] were 1 nM, 2.7 nM, 11400 nM and 33300 nM.
As for `Cc1nc(Nc2cccc(N3CCCC3=O)n2)sc1-c1cc2c(c(S(C)(=O)=O)c1)C(=O)N([C@@H](C)C(F)(F)F)C2` [Example 10, 5-(4-Methyl-2-{[6-(2-oxopyrrolidin-1-yl)pyridin-2-yl]amino}-1,3-thiazol-5-yl)-7-(methylsulfonyl)-2-[(2S)-1,1,1-trifluoropropan-2-yl]-2,3-dihydro-1H-isoindol-1-one], the concentration for half-maximal inhibition (IC50) is 0.9 nM in experiment [1], 78 nM in experiment [3] and 575 nM in experiment [4].
Take `Cc1nc(Nc2cccc(N3CCNC3=O)n2)sc1-c1cc2c(c(S(C)(=O)=O)c1)C(=O)N([C@@H](C)C(F)(F)F)C2` [Example 11, 5-(4-Methyl-2-{[6-(2-oxoimidazolidin-1-yl)pyridin-2-yl]amino}-1,3-thiazol-5-yl)-7-(methylsulfonyl)-2-[(2S)-1,1,1-trifluoropropan-2-yl]-2,3-dihydro-1H-isoindol-1-one]: the IC50 in experiment [1] worked out at 0.8 nM; in experiment [2], 1.2 nM; in experiment [3] it was 54 nM; in experiment [4], 291 nM.
For `Cc1nc(Nc2cccc(N3CCOC3=O)n2)sc1-c1cc2c(c(S(C)(=O)=O)c1)C(=O)N([C@@H](C)C(F)(F)F)C2` [Example 12, 5-(4-Methyl-2-{[6-(2-oxo-1,3-oxazolidin-3-yl)pyridin-2-yl]amino}-1,3-thiazol-5-yl)-7-(methylsulfonyl)-2-[(2S)-1,1,1-trifluoropropan-2-yl]-2,3-dihydro-1H-isoindol-1-one] the same measures were 0.9 nM, 1.6 nM, 300 nM and 4100 nM.
For `CNS(=O)(=O)c1cc(-c2sc(Nc3cccc(N4CCCCC4=O)n3)nc2C)cc2c1C(=O)N([C@@H](C)C1CC1)C2` [Example 19, 2-[(1S)-1-Cyclopropylethyl]-N-methyl-6-(4-methyl-2-{[6-(2-oxopiperidin-1-yl)pyridin-2-yl]amino}-1,3-thiazol-5-yl)-3-oxo-2,3-dihydro-1H-isoindole-4-sulfonamide], the figures for the IC50 in experiment [3] and in experiment [4] were 18 nM and 168 nM, respectively.
Consider `Cc1nc(Nc2cccc(N3CCOCC3=O)n2)sc1-c1cc2c(c(S(=O)(=O)NC3COC3)c1)C(=O)N([C@@H](C)C1CC1)C2` [Example 31, 2-[(1S)-1-Cyclopropylethyl]-6-(4-methyl-2-{[6-(3-oxomorpholin-4-yl)pyridin-2-yl]amino}-1,3-thiazol-5-yl)-N-(oxetan-3-yl)-3-oxo-2,3-dihydro-1H-isoindole-4-sulfonamide], for which the IC50 is 0.8 nM in experiment [1], 85 nM in experiment [3] and 596 nM in experiment [4].
On to `CNS(=O)(=O)c1cc(-c2sc(Nc3cccc(N4CCCNCC4=O)n3)nc2C)cc2c1C(=O)N([C@@H](C)C1CC1)C2` [Example 52, 2-[(1S)-1-Cyclopropylethyl]-N-methyl-6-(4-methyl-2-{[6-(2-oxo-1,4-diazepan-1-yl)pyridin-2-yl]amino}-1,3-thiazol-5-yl)-3-oxo-2,3-dihydro-1H-isoindole-4-sulfonamide], for which the figures for the 50% inhibitory concentration (IC50) in experiment [1] and in experiment [2] were 22.5 nM and 18.9 nM, respectively.

For the origin of these results see patent US10961236B2, “(S)-2-(1-cyclopropylethyl)-5-(4-methyl-2-((6-(2-oxopyrrolidin-1-yl)pyridin-2-yl)amino) thiazol-5-yl)-7-(methylsulfonyl)isoindolin-1-one as a phosphatidylinositol 3-kinase inhibitor” (AstraZeneca AB, priority 2016, dated 2021).
